# According to patent publication US8603945B2, “Methods and compositions for providing salicyclic acid-independent pathogen resistance in plants” (The Regents of the University of California, priority 2008, dated 2013):
# Tests used:
# [1] = tested on: −333_CaBP22::GUS seedlings; assay: toxic effects on plants after spraying aerial parts of seedlings; type: in vivo
# Method: A: Extent of disease susceptibility/resistance determined by counting the numbers of Peronospora sproangiophores of 17 day old seedlings 7 d after spray-inoculation with 5E4 HpNoco2 spores/ml. 24 h prior to infection with Noco2 the aerial parts of the soil grown seedlings were sprayed with the indicated concentrations of DCA (compound 67) or SA. Three replicates each with at least 30 seedlings per treatment gave similar results. […] Concentrations higher than 100 μM caused cell death, as indicated by reduced GUS staining.
# CaBP22 = assay: semiquantitative RT-PCR of CaBP22 expression; type: in vivo, Arabidopsis
# Method: […] ACT8 is shown as loading control. […] (B) Two week old seedlings were sprayed with virulent HpNoco2 24 hours after pre-treatment with 100 uM DCA. Spores were counted 7 days after spray infection. Means and standard errors were calculated from three independent experiments. Mann-Whitney U test (p<0.05) was used to determine significant differences among mutants.
# As the CaBP22-induction by DCA is blocked in the wrky70 mutant, this compound can interfere with a signaling component that acts upstream from WRKY70 transcription and either independently of downstream from SA. Based on this DCA targets a WRKY70-dependent branch of the defense signaling network.
# WRKY70 = assay: semiquantitative RT-PCR of WRKY70 expression; type: in vivo, Arabidopsis
# [2] = tested on: Pseudomonas syringae DC3000 (Pst DC3000); assay: Pst DC3000 disease resistance in Arabidopsis seedlings (dip inoculation, cfu); type: in vivo; settings: 100 uM
# Method: (A &B) 14 day old soil grown Arabidopsis Col-0 seedlings were pre-treated with 100 uM of the indicated chemical then dip inoculated with Pst DC3000. (A) Photos taken 5 dpi. (B) Quantification of Pst DC3000 growth by counting colony forming units (cfu) at day 0 (grey bars) or day 3 (black bars). Significant differences were determined by Mann-Whitney U tests (p<0.05). (C) Pst DC3000 grown in liquid culture with 100 um of the indicated chemicals or 100 ug/ml hygromycin (HYG). OD600 reflecting bacterial density was measured at indicated times (hours) after inoculation. Standard errors were all less than 0.05 so are not visible on the graph. (D) Two week old cherry tomato seedlings sprayed 0.5 mM DCA, 4 mM SA or mock-treated two days prior to swab inoculation with Pst DC3000 (OD600=0.4). Photos were taken 6 days after Pst challenge.
# [3] = most Arabidopsis defense signaling mutants
compound,measurement,setting,value
"Nc1c(Cl)cc(Cl)cc1C(=O)O [DCA, 3,5-Dichloroanthranilic acid]",concentrations causing cell death (reduced GUS staining),[1],higher than 100 μM
same,endogenous CaBP22 gene expression,"CaBP22; 10 uM, wild type",activates
same,CaBP22 expression in most mutants with deficiencies in defense signaling,CaBP22; [3],wild type expression
same,effect of nahG transgene on induction of CaBP22,CaBP22; nahG (SA-catabolizing enzyme),does not suppress
same,CaBP22-induction in wrky70 mutant,CaBP22; wrky70 mutant,blocked
same,WRKY70 expression,"WRKY70; 10 uM, wild type",activates
same,WRKY70 expression in most mutants with deficiencies in defense signaling,WRKY70; [3],wild type expression
same,effect of nahG transgene on induction of WRKY70,WRKY70; nahG (SA-catabolizing enzyme),does not suppress
same,disease resistance to Pst DC3000,[2]; Arabidopsis Col-0,triggered disease resistance
same,suppression of bacterial growth (cfu) compared with SA and INA,[2]; day 3,more efficiently than SA or the frequently used SA analog INA
